Drawing on patent publication US10974081B2, “Treatment and prevention of sleep disorders” (Purdue Pharma L.P., priority 2016, dated 2021), this text covers fraction unbound for 1 molecule.

The nature of this data set: Free unbound compound fraction, equilibrium dialysis of rat serum. It counts as in vitro ADME. The following applies: male, Crl:CD (SD), rat, rat serum; 2 μg/mL, 24 hours dialysis at 37° C. The procedure:
The extent of in vitro binding of Compound (1F) or W-212393 to rat serum was determined as an assessment of the availability of free unbound compound for modulating receptor activity according to a procedure disclosed in, e.g., Example 15 of U.S. Pat. No. 9,290,488, which is hereby incorporated by reference in its entirety. Serum from rats containing a tested compound in one chamber of a dialysis cell was dialyzed with phosphate buffered saline (“PBS”) in the other chamber; thereafter, the supernatant from each chamber was analyzed for the concentration of the tested compound present. […] The final concentration of each tested compound in the serum sample was adjusted to 2 μg/mL by adding an appropriate volume of PBS. A cell suitable for equilibrium dialysis was used in the determinations. A SPECTRA/POR dialysis membrane (with molecular mass cutoff of 12,000-14,000 Da, Spectrum Laboratories, Inc., Rancho Dominguez, Calif.) separated the dialysis cell into two chambers. A 500 μL aliquot of the serum sample containing a tested compound was applied to one chamber (serum chamber) of the dialysis cell. A 500 μL aliquot of PBS was applied to the other chamber (PBS chamber) of the dialysis cell. The dialysis study was conducted in duplicate for each tested compound. After 24 hours of equilibrium dialysis at 37° C., 30 μL of liquid from the serum chamber of the dialysis cell was collected and to this was added 270 μL of fresh PBS (this combination was designated Sample “A”). Then, 270 μL of liquid from the PBS chamber of the dialysis cell was collected and to this was added 30 μL of control rat serum (i.e., rat serum never exposed to any test compound, this combination was designated Sample “B”). […] Each supernatant was analyzed by LC-MS-MS. […] Thereafter, the percentage of free unbound tested compound was calculated from the ratio of the tested compound amount determined from Sample B divided by the sum of the tested compound amounts determined from Sample A and Sample B.
(In general: Equilibrium dialysis compares concentrations on both sides of a semipermeable membrane.)

With `CNC(=O)Cn1c(=O)n(C2CCN([C@@H]3Cc4cccc5cccc3c45)CC2)c2ccccc21` [Compound W-212393], the unbound share (fraction unbound) (as a rule, free concentration divided by total concentration) at 24 h, 2 μg/mL is < 0.001.
